Columns and labels:
Helicobacter pylori = assay: Activity against Helicobacter pylori, agar dilution (method of Iwahi et al.), Columbia agar, 4 days growth; type: cell-based; details: Columbia agar (Oxoid), growth period of 4 days, approximate values; for MIC50: 96 h, read-out: Appr. MIC 50
Excerpt: The compounds of the formula I were investigated with respect to their activity against Helicobacter pylori following the method described by Tomoyuki Iwahi et al. (Antimicrobial Agents and Chemotherapy, 1991, 490-496) using Columbia agar (Oxoid) and a growth period of 4 days.

MIC50 (Helicobacter pylori)	melting point	Appr. MIC 50 (Helicobacter pylori)	Structure (SMILES)
≤ 0.1 µg/mL	84 to 86 °C	–	Cc1c(OCCOCCSCc2cccnc2)ccnc1CNc1cnc2ccccc2c1 [Compound 30, (3-Methyl-4-{2-[2-(pyridin-3-ylmethylsulfanyl)-ethoxy]-ethoxy}-pyridin-2-ylmethyl)-quinolin-3-yl-amine]
≤ 0.1 µg/mL	125 to 126 °C	–	Cc1c(SCCCSCCO)ccnc1CNc1cnc2ccccc2c1 [Compound 25, 2-{3-[3-Methyl-2-(quinolin-3-ylaminomethyl)-pyridin-4-ylsulfanyl]-propylsulfanyl}-ethanol]
≤ 0.1 µg/mL	152 to 154 °C	–	Cc1c(SCCSCCn2c([N+](=O)[O-])cnc2C)ccnc1CNc1cnc2ccccc2c1 [Compound 9, (3-Methyl-4-{2-[2-(2-methyl-5-nitroimidazol-1-yl)ethylsulfanyl]ethylsulfanyl}pyridin-2-ylmethyl)quinolin-3-ylamine]
≤ 0.1 µg/mL	–	–	Cc1c(OCCSCc2cccnc2)ccnc1CNc1cnc2ccccc2c1 [Compound 33, {3-Methyl-4-[2-(pyridin-3-ylmethylsulfanyl)-ethoxy]-pyridin-2-ylmethyl}-quinolin-3-yl-amine]
–	–	≦0.1 μg/ml	Cc1c(SCCCCSCCn2c([N+](=O)[O-])cnc2C)ccnc1CNc1cnc2ccccc2c1 [Compound 13, (3-Methyl-4-{4-[2-(2-methyl-5-nitroimidazol-1-yl)ethylsulfanylbutyl]sulfanyl}pyridin-2-yl-methyl)quinolin-3-ylamine]
≤ 0.1 µg/mL	100 to 104 °C	–	Cc1c(SCCCSCC2CN(C(C)C)C(=O)O2)ccnc1CNc1cnc2ccccc2c1 (stereo not shown) [Compound 17, 3-Isopropyl-5-{3-[3-methyl-2-(quinolin-3-ylaminomethyl)-pyridin-4-ylsulfanyl]-propylsulfanylmethyl}-oxazolidin-2-one]
≤ 0.1 µg/mL	78 to 81 °C	–	Cc1c(SCCCSCC2CN(CC3CC3)C(=O)O2)ccnc1CNc1cnc2ccccc2c1 (stereo not shown) [Compound 19, 3-Cyclopropylmethyl-5-{3-[3-methyl-2-(quinolin-3-ylaminomethyl)-pyridin-4ylsulfanyl]-propylsulfanylmethyl}-oxazolidin-2-one]
≤ 0.1 µg/mL	65 to 67 °C	–	Cc1c(OCCOCCSCc2ccccn2)ccnc1CNc1cnc2ccccc2c1 [Compound 31, (3-Methyl-4-{2-[2-(pyridin-2-ylmethylsulfanyl)-ethoxy]-ethoxy}-pyridin-2-ylmethyl)-quinolin-3-yl-amine]
≤ 0.1 µg/mL	138 to 141 °C	–	Cc1c(OCCCSCCn2c([N+](=O)[O-])cnc2C)ccnc1CNc1cnc2ccccc2c1 [Compound 23, (3-Methyl-4-{3-[2-(2-methyl-5-nitro-imidazol-1-yl)-ethylsulfanyl]-propoxy}-pyridin-2-ylmethyl)-quinolin-3-yl-amine]
≤ 0.1 µg/mL	–	–	Cc1c(SCCCN2CCN(CC3CN(Cc4ccncc4)C(=O)O3)CC2)ccnc1CNc1cnc2ccccc2c1 (stereo not shown) [Compound 27, 5-(4-{3-[3-Methyl-2-(quinolin-3-ylaminomethyl)-pyridin-4-ylsulfanyl]-propyl}-piperazin-1-ylmethyl)-3-pyridin-4-ylmethyl-oxazolidin-2-one]
≤ 0.1 µg/mL	–	–	Cc1c(SCCSCc2ccncc2)ccnc1CNc1cnc2ccccc2c1 [Compound 8, {3-Methyl-4-[2-(pyridin-4-ylmethylsulfanyl)ethylsulfanyl]pyridin-2-ylmethyl}quinolin-3-ylamine]
≤ 0.1 µg/mL	–	–	Cc1c(SCCCN2CCN(Cc3ccncc3)CC2)ccnc1CNc1cnc2ccccc2c1 [Compound 10, {3-Methyl-4-[3-(4-pyridin-4-ylmethylpiperazin-1-yl)propylsulfanyl]pyridin-2-ylmethyl}-quinolin-3-ylamine]
≤ 0.1 µg/mL	106 to 108 °C	–	Cc1c(SCC2CCCN(C)C2)ccnc1CNc1cnc2ccccc2c1 (stereo not shown) [Compound 32, [3-Methyl-4-(1-methyl-piperidin-3-ylmethylsulfanyl)-pyridin-2-ylmethyl]-quinolin-3-yl-amine]
≤ 0.1 µg/mL	–	–	Cc1c(OCCSCc2ccncc2)ccnc1CNc1cnc2ccccc2c1 [Compound 21, {3-Methyl-4-[2-(pyridin-4-ylmethylsulfanyl)-ethoxy]-pyridin-2-ylmethyl}-quinolin-3-yl-amine]
≤ 0.1 µg/mL	–	–	Cc1c(SCCCSc2ncccn2)ccnc1CNc1cnc2ccccc2c1 [Compound 2, {3-Methyl4-[3-(pyrimidin-2-ylsulfanyl)propylsulfanyl]pyridin-2-ylmethyl}quinolin-3-ylamine]
≤ 0.1 µg/mL	95 to 99 °C	–	Cc1c(SCCCSCCCn2cc([N+](=O)[O-])nc2C)ccnc1CNc1cnc2ccccc2c1 [Compound 18, (3-Methyl-4-{3-[3-(2-methyl-4-nitro-imidazol-1-yl)-propylsulfanyl]-propylsulfanyl}-pyridin-2-ylmethyl)-quinolin-3-yl-amine]
≤ 0.1 µg/mL	119 to 120 °C	–	Cc1c(OCCCCSCCO)ccnc1CNc1cnc2ccccc2c1 [Compound 26, 2-{4-[3-Methyl-2-(quinolin3-ylaminomethyl)-pyridin-4-yloxy]-butylsulfanyl}-ethanol]
≤ 0.1 µg/mL	–	–	Cc1c(OCCSCc2ccccn2)ccnc1CNc1cnc2ccccc2c1 [Compound 34, {3-Methyl-4-[2-(pyridin-2-ylmethylsulfanyl)-ethoxy]-pyridin-2-ylmethyl}-quinolin-3-yl-amine]
≤ 0.1 µg/mL	–	–	Cc1c(OCCCSCc2ccncc2)ccnc1CNc1cnc2ccccc2c1 [Compound 24, {3-Methyl-4-[3-(pyridin-4-ylmethylsulfanyl)-propoxy]-pyridin-2-ylmethyl}-quinolin-3-yl-amine]
≤ 0.1 µg/mL	212 to 215 °C (dec.)	–	Cc1c(SCCOCC(F)(F)F)ccnc1CNc1cnc2ccccc2c1.Cl [Compound 36, (3-Methyl-4-{2-[2,2,2-trifluoro-ethoxy)-ethylsulfanyl}-pyridin-2-ylmethyl)-quinolin-3-yl-amine hydrochloride]
≤ 0.1 µg/mL	–	–	Cc1c(SCCSCc2cccnc2)ccnc1CNc1cnc2ccccc2c1 [Compound 35, {3-Methyl-4-[2-(pyridin-3-ylmethylsulfanyl)-ethylsulfanyl]-pyridin-2-ylmethyl}-quinolin-3-yl-amine]
≤ 0.1 µg/mL	–	–	Cc1c(SCCCSCc2ccccn2)ccnc1CNc1cnc2ccccc2c1 [Compound 29, {3-Methyl-4-[3-(pyridin-2-ylmethylsulfanyl)-propylsulfanyl]-pyridin-2-ylmethyl}-quinolin-3-yl-amine]
≤ 0.1 µg/mL	98 to 100 °C	–	Cc1c(SCCCSCC2CN(C)C(=O)O2)ccnc1CNc1cnc2ccccc2c1 (stereo not shown) [Compound 1, 3-Methyl-5-{3-[3-methyl-2-(quinolin-3-ylaminomethyl)pyridin4-ylsulfanyl]propylsulfanylmethyl}oxazolidin-2-one]
≤ 0.1 µg/mL	–	–	Cc1c(OCCOCCSCc2ccncc2)ccnc1CNc1cnc2ccccc2c1 [Compound 28, (3-Methyl-4-{2-[2-(pyridin-4-ylmethylsulfanyl)-ethoxy]-ethoxy}-pyridin-2-ylmethyl)-quinolin-3-yl-amine]
–	105 to 108 °C	–	Cc1c(SCCCN2CCNCC2)ccnc1CNc1cnc2ccccc2c1 [Compound 4, [3-Methyl-4-(3-piperazin-1-ylpropylsulfanyl)pyridin-2-ylmethyl]quinolin-3-ylamine]
≤ 0.1 µg/mL	–	–	Cc1c(SCCCSCc2ccc(Cl)s2)ccnc1CNc1cnc2ccccc2c1 [Compound 14, {4-[3-(5-Chlorothiophen-2-ylmethylsulfanyl)propylsulfanyl]-3-methylpyridin-2-ylmethyl}-quinolin-3-ylamine]
≤ 0.1 µg/mL	133 to 135 °C	–	Cc1c(SCCCSCCn2c([N+](=O)[O-])cnc2C)ccnc1CNc1cnc2ccccc2c1 [Compound 15, (3-Methyl-4-{3-[2-(2-methyl-5-nitroimidazol-1-yl)ethylsulfanyl]propylsulfanyl}-pyridin-2-ylmethyl)quinolin-3-ylamine]
≤ 0.1 µg/mL	152 to 155 °C	–	Cc1c(OCCSCCn2c([N+](=O)[O-])cnc2C)ccnc1CNc1cnc2ccccc2c1 [Compound 22, (3-Methyl-4-{2-[2-(2-methyl-5-nitro-imidazol-1-yl)-ethylsulfanyl]-ethoxy}-pyridin-2-ylmethyl)-quinolin-3-yl-amine]
≤ 0.1 µg/mL	–	–	Cc1c(SCCCSCc2ccncc2)ccnc1CNc1cnc2ccccc2c1 [Compound 12, {3-Methyl-4-[3-(pyridin-4-ylmethylsulfanyl)propylsulfanyl]pyridin-2-ylmethyl}quinolin-3-ylamine]
≤ 0.1 µg/mL	–	–	Cc1c(SCCCSCC2CCCN(C)C2)ccnc1CNc1cnc2ccccc2c1.O=C(O)C(=O)O (stereo not shown) [Compound 11, {3-Methyl-4-[3-(1-methylpiperidin-3-ylmethylsulfanyl)propylsulfanyl]pyridin-2-ylmethyl}-quinolin-3-ylamine oxalate]

Structure (SMILES)	MIC50 (Helicobacter pylori)	melting point	Appr. MIC 50 (Helicobacter pylori)
Cc1c(OCCCCSCC2CCCN(C)C2)ccnc1CNc1cnc2ccccc2c1 (stereo not shown) [Compound 20, {3-Methyl-4-[4-(1-methyl-piperidin-3-ylmethylsulfanyl)-butoxy]-pyridin-2-ylmethyl}-quinolin-3-yl-amine]	≤ 0.1 µg/mL	–	–
Cc1c(OCCCCSCCn2c([N+](=O)[O-])cnc2C)ccnc1CNc1cnc2ccccc2c1 [Compound 7, (3-Methyl-4-{4-[2-(2-methyl-5-nitroimidazol-1-yl)ethylsulfanyl]butoxy}pyridin-2-ylmethyl)-quinolin-3-ylamine]	≤ 0.1 µg/mL	154 to 158 °C	–
Cc1c(OCCCCSCc2ccncc2)ccnc1CNc1cnc2ccccc2c1 [Compound 6, {3-Methyl-4-[4-(pyridin4-ylmethylsulfanyl)butoxy]pyridin-2-ylmethyl}quinolin3-ylamine]	≤ 0.1 µg/mL	–	–
Cc1c(OCCCCSc2ncccn2)ccnc1CNc1cnc2ccccc2c1 [Compound 16, {3-Methyl-4-[4-(pyrimidin-2-ylsulfanyl)-butoxy]-pyridin-2-ylmethyl}-quinolin-3-yl-amine]	≤ 0.1 µg/mL	–	–

— US6479514B1, “Quinoline-aminomethyl-pyridyl derivatives with anti-helicobacter activity” (Altana Pharma AG, priority 1998, dated 2002)
